Assay results reported in PMC9169098 (Proceedings of the National Academy of Sciences of the …, 2022).
Blank lines part the entries; values can stand above or below the molecule they belong to.

Experiments:
[1] = molecular target: T1, BceAB (ATPase sites of BceA) (Bacillus subtilis, UniProt O34697); experiment: colorimetric phosphate-release ATPase assay; format: biochemical; conditions: ATP substrate, 4 mM MgCl2, 37 °C, inhibitor
T1 sequence (O34697 1-253 limits assumed): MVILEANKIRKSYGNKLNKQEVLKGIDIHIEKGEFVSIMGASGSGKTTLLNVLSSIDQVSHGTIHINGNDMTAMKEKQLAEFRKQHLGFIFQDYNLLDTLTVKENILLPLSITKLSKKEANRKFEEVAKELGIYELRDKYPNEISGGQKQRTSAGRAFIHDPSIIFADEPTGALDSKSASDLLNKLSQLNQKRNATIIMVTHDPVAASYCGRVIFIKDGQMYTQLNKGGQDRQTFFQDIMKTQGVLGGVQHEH
T1 sequence (O34741 1-646 partner): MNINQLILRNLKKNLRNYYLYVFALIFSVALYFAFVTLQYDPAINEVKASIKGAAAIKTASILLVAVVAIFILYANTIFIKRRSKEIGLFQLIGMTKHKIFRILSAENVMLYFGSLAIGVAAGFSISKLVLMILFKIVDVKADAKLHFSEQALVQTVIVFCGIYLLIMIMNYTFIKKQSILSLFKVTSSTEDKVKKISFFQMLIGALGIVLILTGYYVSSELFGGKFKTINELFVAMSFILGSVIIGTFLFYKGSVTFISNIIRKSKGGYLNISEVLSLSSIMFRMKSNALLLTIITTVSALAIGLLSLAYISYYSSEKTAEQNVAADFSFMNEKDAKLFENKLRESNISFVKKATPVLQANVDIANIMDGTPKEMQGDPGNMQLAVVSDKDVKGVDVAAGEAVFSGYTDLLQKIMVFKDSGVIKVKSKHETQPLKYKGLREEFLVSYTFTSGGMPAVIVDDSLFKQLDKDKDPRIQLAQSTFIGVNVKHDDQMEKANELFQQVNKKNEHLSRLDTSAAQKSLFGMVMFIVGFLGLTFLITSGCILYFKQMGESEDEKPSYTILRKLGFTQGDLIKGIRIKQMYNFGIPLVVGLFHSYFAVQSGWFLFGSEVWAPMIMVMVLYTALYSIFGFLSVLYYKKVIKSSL

BceB = molecular target: T2, BceB (B. subtilis, UniProt O34741 1-646); experiment: cryo-EM structure
T2 sequence (looked up): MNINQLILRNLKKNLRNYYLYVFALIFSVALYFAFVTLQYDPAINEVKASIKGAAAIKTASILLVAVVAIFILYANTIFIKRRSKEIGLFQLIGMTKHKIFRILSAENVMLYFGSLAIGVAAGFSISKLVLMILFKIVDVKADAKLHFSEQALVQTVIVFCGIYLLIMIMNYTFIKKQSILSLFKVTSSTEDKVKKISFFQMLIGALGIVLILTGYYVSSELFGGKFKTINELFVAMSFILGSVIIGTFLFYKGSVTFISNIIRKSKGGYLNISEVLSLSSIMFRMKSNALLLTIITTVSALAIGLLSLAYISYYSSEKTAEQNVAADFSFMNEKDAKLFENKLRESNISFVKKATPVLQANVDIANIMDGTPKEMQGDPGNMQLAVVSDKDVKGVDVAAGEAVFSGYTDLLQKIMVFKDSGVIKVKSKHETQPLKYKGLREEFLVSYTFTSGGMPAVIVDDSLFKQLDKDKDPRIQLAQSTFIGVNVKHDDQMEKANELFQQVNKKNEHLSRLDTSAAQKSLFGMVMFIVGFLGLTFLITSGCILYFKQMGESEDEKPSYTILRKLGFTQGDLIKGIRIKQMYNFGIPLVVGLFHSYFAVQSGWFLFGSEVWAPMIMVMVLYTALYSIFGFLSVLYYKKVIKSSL

cryo-EM structure = molecular target: the molecule itself; experiment: cryo-EM structure

Molecule: Nc1ncnc2c1ncn2[C@@H]1O[C@H](COP(=O)(O)OP(=O)(O)OP(O)(O)=S)[C@@H](O)[C@H]1O [ATPγS]
colorimetric phosphate-release ATPase assay ([1]; substrate analog): potently inhibited by common ATPase inhibitors such as the substrate analog ATP? S

Molecule: [O]=[V]([OH])([OH])[OH] [sodium ortho-vanadate]
colorimetric phosphate-release ATPase assay [1]: potently inhibited by common ATPase inhibitors such as the substrate analog ATP? S or sodium ortho-vanadate

stoichiometry N (BceB): 2 BceA per BceB
B1: BceA (natural protein, B. subtilis, UniProt O34697 1-253, looked up)
chain: MVILEANKIRKSYGNKLNKQEVLKGIDIHIEKGEFVSIMGASGSGKTTLLNVLSSIDQVSHGTIHINGNDMTAMKEKQLAEFRKQHLGFIFQDYNLLDTLTVKENILLPLSITKLSKKEANRKFEEVAKELGIYELRDKYPNEISGGQKQRTSAGRAFIHDPSIIFADEPTGALDSKSASDLLNKLSQLNQKRNATIIMVTHDPVAASYCGRVIFIKDGQMYTQLNKGGQDRQTFFQDIMKTQGVLGGVQHEH

B2: BceA E169Q variant (natural protein, B. subtilis, UniProt O34697 1-253, looked up)
chain: MVILEANKIRKSYGNKLNKQEVLKGIDIHIEKGEFVSIMGASGSGKTTLLNVLSSIDQVSHGTIHINGNDMTAMKEKQLAEFRKQHLGFIFQDYNLLDTLTVKENILLPLSITKLSKKEANRKFEEVAKELGIYELRDKYPNEISGGQKQRTSAGRAFIHDPSIIFADQPTGALDSKSASDLLNKLSQLNQKRNATIIMVTHDPVAASYCGRVIFIKDGQMYTQLNKGGQDRQTFFQDIMKTQGVLGGVQHEH
stoichiometry N (cryo-EM structure): 2
